Values quoted from earlier work as cited in patent publication US11696883B2, “Compositions for reducing hair loss and/or increasing hair regrowth” (Triple Hair Inc., priority 2014, dated 2023).
Read-outs that look alike come from different tables or passages of the source.

Columns and labels:
[1] = system: hair loss; conditions: topical
[2] = system: prostaglandin endoperoxide synthase-1 (PGHS-1); conditions: Michelet et al. 1997
[3] = latanoprost in ophthalmology use

solubility (in 0.1N HCl and 0.1N NaOH)	solubility (in chloroform, DMSO, ethanol, methanol, n-propanol)	solubility (in propylene glycol, polyethylene glycol 400)	solubility (in water)	solubility (in acetone, ethanol, ethyl acetate, isopropanol, methanol and octanol)	solubility (in acetonitrile)	Compound	effective in promoting regrowth of the hair [1]	activation of purified PGHS-1 [2]	other adverse effects [3]	side effects [3]
–	–	–	–	–	–	Nc1cc(N2CCCCC2)nc(N)[n+]1[O-] [Minoxidil, 6-(1-pipedidinyl)-2,4-pyrimidinediamine 3-oxide]	less than 40%	potent activator	–	–
very slightly soluble	freely soluble	sparingly soluble	not soluble	–	–	CC(C)(C)NC(=O)[C@H]1CC[C@H]2[C@@H]3CC[C@H]4NC(=O)C=C[C@]4(C)[C@H]3CC[C@]12C [Finasteride, (5α,17β)-N-(1,1-Dimethylethyl)-3-oxo-4-azaandrost-1-ene-17-carboxamide]	–	–	–	–
–	–	–	practically insoluble	freely soluble	very soluble	CC(C)OC(=O)CCC/C=C\C[C@@H]1[C@@H](CC[C@@H](O)CCc2ccccc2)[C@H](O)C[C@@H]1O [Latanoprost]	–	–	erythema, folliculitis, sensation of burning and erysipelas	augmentation of periocular hirsuteness
